Residues, ends and D or L forms follow the SMILES beside them.
Columns and labels:
rat recombinant myc-B2R = target: T1, rat recombinant myc-B2R (Rattus norvegicus, UniProt P25023); test: [3H]BK binding competition, rat myc-B2R; conditions: 3 nM [3H]BK, 0 °C, intact HEK 293a cells, peptidase inhibitors (captopril, PMSF); [95% C.L.]
T1 construct: expressed in transfected cells
T1 sequence (P25023 1-396): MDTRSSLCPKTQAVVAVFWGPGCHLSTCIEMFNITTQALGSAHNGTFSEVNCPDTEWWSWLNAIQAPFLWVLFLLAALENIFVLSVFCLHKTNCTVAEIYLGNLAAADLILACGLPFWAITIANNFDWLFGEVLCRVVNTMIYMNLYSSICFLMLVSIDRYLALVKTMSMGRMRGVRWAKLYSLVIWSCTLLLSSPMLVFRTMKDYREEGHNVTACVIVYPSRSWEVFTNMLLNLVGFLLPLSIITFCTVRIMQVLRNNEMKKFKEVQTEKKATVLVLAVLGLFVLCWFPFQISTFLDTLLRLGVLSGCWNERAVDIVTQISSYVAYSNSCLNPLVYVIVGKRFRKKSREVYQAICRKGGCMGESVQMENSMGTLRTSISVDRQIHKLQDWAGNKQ
Description: (§1) The construction of myc-tagged B2R expression vectors containing the human and rat receptor sequence has been recently reported, as well as the derivation of HEK 293a cell lines that stably express each one of these constructions ([Charest-Morin et al., 2015]). The HEK 293a cell line was originally obtained from Sigma-Aldrich. Affinity of N-terminally extended kinins for the B2R was evaluated using a radioligand binding competition assay performed at 0 °C in the presence of peptidase inhibitors that included captopril and PMSF ([Houle et al., 2000]).
(§2) Results are presented as means ± s.e.m.

[1] = target: T2, recombinant human myc-B2R (Homo sapiens, UniProt P30411); test: [3H]BK binding competition, human myc-B2R; conditions: for IC50: 3 nM [3H]BK, 0 °C, intact HEK 293a cells, peptidase inhibitors (captopril, PMSF), [95% C.L.]
T2 construct: expressed in transfected cells
T2 sequence (P30411 1-391): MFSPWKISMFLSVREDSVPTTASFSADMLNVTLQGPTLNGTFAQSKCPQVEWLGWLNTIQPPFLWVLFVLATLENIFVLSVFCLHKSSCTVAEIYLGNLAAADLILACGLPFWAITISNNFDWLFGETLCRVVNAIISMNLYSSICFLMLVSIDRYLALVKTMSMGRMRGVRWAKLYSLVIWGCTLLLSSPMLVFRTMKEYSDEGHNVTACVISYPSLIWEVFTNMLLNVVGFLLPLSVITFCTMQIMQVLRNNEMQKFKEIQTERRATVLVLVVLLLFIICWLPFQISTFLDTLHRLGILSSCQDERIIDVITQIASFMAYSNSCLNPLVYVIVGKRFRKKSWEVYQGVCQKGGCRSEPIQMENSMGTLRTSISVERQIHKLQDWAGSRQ
Description: as §1, §2

[2] = target: T3, human isolated umbilical vein (BK B2R; histamine H1R) (Homo sapiens, UniProt P30411); conditions: for EC50: read-out: Human umbilical vein EC50, contraction, cumulative, [95% C.L.]
T3 sequence (P30411 1-391): T2 sequence (P30411 1-391)
Source text: The institutional research ethics board (CHU de Québec) approved the anonymous use of human umbilical cord segments obtained after elective cesarean section deliveries (file number: 2012-323). Informed written consent was obtained from mothers.
Results are presented as means ± s.e.m. Radioligand binding data were fitted by nonlinear regression to a one-site competition equation using a least-square method (Prism 5.0; GraphPad Software Inc., San Diego, CA, USA) and IC50 values calculated from this procedure. The same computer program was used to draw concentration-effect curves (least square fitting of sigmoidal dose–response equation with variable slope) and to derive contractile EC50 values. Data describing baseline values of heart rate and mean arterial blood pressure and hypotensive responses to peptides in anesthetized rats were assessed by using one-way analysis of variance (ANOVA) followed by the Dunnett’s test (repeated comparison with a common control). The effects of drugs on the hypotensive responses to each dose of MK were assessed by using ANOVA followed by the Dunnett’s test.

[3] = LC-MS of MK incubated with human umbilical vein ring; format: in vitro ADME; conditions: MK (100 fmol analysed), 37 °C, 5 or 15 min
Description: Synthetic MK (1 µM) was submitted to digestion in 2 ml of sterile-filtered Krebs solution in the presence of a freshly prepared ring of human umbilical vein (wet weight 25–37 mg). The tubes containing these materials were incubated at 37 °C for 5 or 15 min; the tissues were then removed and five volumes of cold ethanol (10 ml) were added to each tube. The tubes were incubated for 1 h on ice, centrifuged at 10,000 g to remove precipitated proteins and the kinin-containing supernatants were collected (procedure previously validated, [Raymond et al., 1995]). The supernatants were then completely evaporated to dryness in a Speedvac system and reconstituted in a small volume of water. Peptides were desalted on stage tip (C18), vacuum dried and then resuspended into 0.1% formic acid. One hundred fmol of each sample (starting MK quantity) was analyzed by mass spectrometry.
Mass spectrometry: peptide samples were separated by online reversed-phase (RP) nanoscale capillary liquid chromatography (nanoLC) and analyzed by electrospray mass spectrometry (ES MS/MS). The experiments were performed with a Ekspert NanoLC425 (Eksigent) coupled to a 5600+ mass spectrometer (AB Sciex, Framingham, MA, USA) equipped with a nanoelectrospray ion source. Peptide separation took place on a picofrit column (Reprosil 3u, 120A C18, 15 cm × 0.075 mm internal diameter). Peptides were eluted with a linear gradient from 5–35% solvent B (acetonitrile, 0.1% formic acid) in 35 min, at 300 nL/min. Mass spectra were acquired using a data dependent acquisition mode using Analyst software version 1.7. […] Dynamic exclusion was set for a period of 3 s and a tolerance of 100 ppm
Database searching: MGF peak list files were created using Protein Pilot version 5.0 software (Sciex) utilizing the Paragon and Progroup algorithms. MGF sample files were then analyzed using Mascot (Matrix Science, London, UK; version 2.5.1).
Mascot was set up to search the MK sequence assuming that the digestion enzyme was non-specific. Mascot was searched with a fragment ion mass tolerance of 0.100 Da and a parent ion tolerance of 0.100 Da. Deamidation of asparagine and glutamine and oxidation of methionine were specified in Mascot as variable modifications. Scaffold (version Scaffold_4.7.1; Proteome Software Inc., Portland, OR, USA) was used to validate MS/MS based peptide and protein identifications.
Data processing: Peak View 1.2.0.1 (Sciex) was used to extract the specific precursor masses and calculate the area under the curve. Extracted ion chromatoram (XIC) were generated from the TOF MS using a peak width of 0.05.

[4] = Plasma level after injection; parameters: species or system rat; conditions: after injection at the highest tested dose in vivo
human BK B1 receptor = conditions: ref Charest-Morin & Marceau, 2016; cited from earlier work
Source text: MRGPRX2 has been recently described as a promiscuous receptor for cationic polymers and drugs that produce direct mast cell degranulation ([McNeil et al., 2015]). […] The contractile effect of MK on the human umbilical vein and ...

rat mast cells = conditions: read-out: histamine release EC50; ref Devillier et al., 1985; cited from earlier work
Source text: MK, encoded by two genes as five identical and cleavable amino acid sequences ([Chen et al., 2003]), is presumably a dissuasive toxin expressed in the skin of the toad Bombina maxima. Several such BK-related peptides of amphibian origin are believed to have co-evolved with the kinin receptors of the predatory species such as birds and snakes ([Xi et al., 2015]).

[5] = target: T3, human isolated umbilical vein (BK B2R; histamine H1R); conditions: ref Gera et al., 2011; Charest-Morin et al., 2014; cited from earlier work
Source text: The isolated umbilical vein has a low intrinsic sensitivity to endothelium-dependent vasodilation owing to its >20 layers of B2R-expressing smooth muscle cells ([Koumbadinga et al., 2010]; [Jean et al., 2016b]).

Work on `NC(N)=NCCC[C@H](NC(=O)[C@H](Cc1ccccc1)NC(=O)[C@@H]1CCCN1C(=O)[C@H](CO)NC(=O)[C@H](Cc1ccccc1)NC(=O)CNC(=O)[C@@H]1CCCN1C(=O)[C@@H]1CCCN1C(=O)[C@@H](N)CCCN=C(N)N)C(=O)O` [BK, bradykinin] (H-RPPGFSPFR-OH) yielded an IC50 (rat recombinant myc-B2R) of 0.0192 µM.
`CC[C@H](C)[C@H](NC(=O)[C@H](CCCCN)NC(=O)[C@@H]1CCCN1C(=O)[C@H](CC(C)C)NC(=O)[C@@H](N)CC(=O)O)C(=O)N[C@@H](CC(N)=O)C(=O)N[C@@H](CCCNC(=N)N)C(=O)N[C@@H](CCCCN)C(=O)NCC(=O)N1CCC[C@H]1C(=O)N[C@@H](CCCNC(=N)N)C(=O)N1CCC[C@H]1C(=O)N1CCC[C@H]1C(=O)NCC(=O)N[C@@H](Cc1ccccc1)C(=O)N[C@@H](CO)C(=O)N1CCC[C@H]1C(=O)N[C@@H](Cc1ccccc1)C(=O)N[C@@H](CCCNC(=N)N)C(=O)O` [MK, maximakinin] (H-DLPKINRKGPRPPGFSPFR-OH) showed an IC50 [1] of 7.56 µM, an IC50 (rat recombinant myc-B2R) of 0.12 µM and an EC50 [2] of 0.145 µM. For the same compound, the “consumption of MK” value [3] was “consumed during the reaction” and the “plasma concentration upper limit” value [4] was ≤ 100 nM.
With `CC[C@H](C)[C@H](NC(=O)[C@H](CCCCN)NC(=O)[C@@H]1CCCN1C(=O)[C@H](CC(C)C)NC(=O)[C@@H](N)CC(=O)O)C(=O)N[C@@H](CC(N)=O)C(=O)N[C@@H](CCCNC(=N)N)C(=O)N[C@@H](CCCCN)C(=O)NCC(=O)N1CCC[C@H]1C(=O)N[C@@H](CCCNC(=N)N)C(=O)N1CCC[C@H]1C(=O)N1CCC[C@H]1C(=O)NCC(=O)N[C@@H](Cc1ccccc1)C(=O)N[C@@H](CO)C(=O)N1CCC[C@H]1C(=O)N[C@@H](Cc1ccccc1)C(=O)O` [MK-des-Arg] (H-DLPKINRKGPRPPGFSPF-OH; N-terminus and C-terminus assumed) the IC50 [1] was > 10 µM, the “displacement of [3H]BK binding / affinity” value ([1]; human myc-B2R) was “did not significantly displace [^3H]BK binding” and the “contractile effect” value [2] was “negligible effects”. For the same compound, the EC50 [2] was > 10 µM and the “B1R affinity” value (human BK B1 receptor) was “very low affinity”.
In the case of Lys-BK, the EC50 (rat mast cells) is given as 7.7 µM.
In the case of “Met-Lys-BK-Ser-Ser [BK prodrug prolonged at the C-terminus]”, the “apparent potency in presence of specific peptidase inhibitors” value [5] is listed as “decreased apparent potency”.

From publication PMC5248581 (PeerJ, 2017)
